Test results taken from patent US7034005B2, “Use of agent for suppressing infection and proliferation of human immunodeficiency syndrome virus” (The Kitasato Institute, priority 2002, dated 2006).

Columns and labels:
[1] = tested on: transcription factor C/EBPβ protein; assay: Expression of C/EBPβ protein in GM-MΦ by Western blotting; assay type: cell-based, human; settings: oligonucleotide treated GM-MΦ (FIG. 11)
Source text: (§1) Expression of tyrosine kinase Hck protein and transcription factor C/EBPβ protein in macrophage was examined after solubilizing the macrophage in SDS-PAGE sample buffer, performing 10% SDS-polyacrylamide electrophoresis, transferring the protein on the gel to immobilon P membrane (Millipore Inc. U.S.) and checking antibodies against these proteins by Western blotting. Antibody to tyrosine kinase Hck protein (N-30) and antibody to C/EBPβ (C-19) were purchased from Santacluse Inc. (U.S.). Western blotting was detected by Amersham ELC Regent (Amersham International plc, Buckinghamshire, UK). Strength of bands was expressed by PSL (photostimulating luminescence) value (A/mm^2).
(§2) These probes were dissolved in the serum free RPMI1640 medium, in which lipofectin (Life Technology Inc., U.S.) was dissolved at 5 μM concentration, at room temperature for 30 minutes, added with RPMI1640 medium, which contains 10% FCS, to the macrophage (final concentration 2 μM) and incubated at 37° C. for 24 hours. Thereafter, cells were washed with the medium, added the RPMI1640 medium containing 10% FCS without oligonucleotide, further cultured for 24 hours, and then infected with HIV-1.

[2] = tested on: HIV-1BAL strain in GM type macrophage (GM-MΦ) derived from human monocytes; assay: Proliferation of HIV-1 in GM-MΦ: p24 protein in culture supernatant by sandwich ELISA; assay type: cell-based; settings: for viral generation in GM-MΦ: 30 μM, HIV-1BAL, all assay points up to 14 days, similar to DMSO control (FIG. 14)
Description: (§3) Macrophages derived from monocytes were prepared by culturing the recovered monocytes in the presence of M-CSF (macrophage colony-stimulating factor) (10^4 U/ml, provided by Morinaga Milk Co.), granulocytes and granulocyte-macrophage colony-stimulating factor, GM-CSF) (500 U/ml, provided by Japan Scheling Plough Co., Osaka, or purchased from R & S Genzyme-TECHNE Inc.) with RPMI1640 medium added with FCS10% (Nissui Seiyaku Co., Tokyo) for 7–8 days.
(§4) The macrophage prepared by differential induction of M-CSF from human monocytes is designated as M type macrophage (M type MΦ or M-MΦ) and the macrophage prepared by differential induction of GM-CSF from human monocytes is designated as GM type macrophage (GM type MΦ or GM-MΦ) Further, alveolar macrophage (alveolar MΦ or A-MΦ) was prepared as follows. Cells in the alveolar lavage liquid obtained from the alveolar lavage of healthy volunteers were recovered, suspended and adhered to plastics, then the non-adhered cells were washed out and the remained adhered cells were designated as the alveolar MΦ.
(§5) Infection of HIV-1 to macrophage was performed as follows. Macrophage directed viral strains, HIV-1JR-FL and HIV-1BAL, were infected for 2 hours in contact with M-MΦ, GM-MΦ and A-MΦ (adjusted to 2.5×10^5/well, Flacon No3043: Becton Dickinson Labware, Inc. U.S.)at low concentration (p24 antigen titer 50 ng/ml, TCID50=3000/ml virus to final concentration at 100 pg/ml), and non-adsorbed virus to the macrophage was washed out, and cultured with adding fresh medium. In case of the medium with M-MΦ, M-CSF was added (10^4 U/ml), and that of the medium with GM-MΦ, GM-CSF was added (500 U/ml).
(§6) Proliferation of virus was examined with the released viral particles in the culture supernatant after the infection by the sandwich ELISA using two types of anti-p24 antibody (Nu24 and 10B5^13). The following JAM62 and JAM65 were used as LTR (HIV long terminal repeat)-gap gene primer. The following JAM63 and JAM 64 were used as the internal primer for the nested PCR. • JAM62: • 5′-[…]-3′ (SEQ ID NO: 1) • JAM65: • 5′-[…]-3′ (SEQ ID NO: 2) • JAM63: • 5′-GTGTOACTCTGGTAACTAGAGATCC-3′ (SEQ ID NO: 3) • JAM64: • 5′-[…]-3′ (SEQ ID NO: 4) (1-4) Assay of Expression of Tyrosine Kinase Hck Protein and Transcription Factor C/EBPβ Protein
(§7) In order to show growth suppression effect of the present invention, among macrolide derivatives, EM, EM201, EM202, EM703, CAM, EM722, EM730, EM732, EM736, EM734, EM735, EM747, EM748, EM743, EM746, EM750 or EM751 was dissolved in DMSO with each 100 mM concentration, and used in dilution with the medium thereafter. A control group was M-MΦ treated only with DMSO used for dissolving macrolide derivatives.
(§8) M-MΦ and GM-M Φ were subjected to contact infection with HIV-1BAL strain for 2 hours, added 30 μM of EM, EM201, EM202, EM703, CAM,EM722, EM730, EM732, EM736, EM734, EM735, EM747, EM748, EM743, EM746, EM750 or EM751, incubated for 14 days and amount of p24 protein in the cultured supernatant was assayed in the time-dependent manner.

[3] = tested on: HIV-1BAL strain in M type macrophage (M-MΦ) derived from human monocytes; assay: Proliferation of HIV-1 in M-MΦ: p24 protein in culture supernatant by sandwich ELISA; assay type: cell-based; settings: for suppression of viral generation (p24 in culture supernatant) in M-MΦ: 30 μM, HIV-1BAL, 14 days of culture, compared with DMSO control (FIG. 13); for viral proliferation at 300 μM in M-MΦ: also observed in DMSO control, ascribed to cytotoxicity of DMSO; for concentration dependence of suppressive action on HIV-1BAL in M-MΦ: various concentrations (FIG. 16)
Description: as §3, §4, §5, §6, §7, §8

[4] = tested on: ERK1/2; assay: Tyrosine phosphorylation (activation) of ERK1/2 in HIV-1 infected M-MΦ by Western blotting; assay type: cell-based, human; settings: 30 μM, HIV-1BAL infected M-MΦ, compared with DMSO (FIG. 19(B))
Description: (§9) P38MAPK and ERK1/2 activation were determined using P38MAPK antibody, anti-ERK1/2 antibody, anti-tyrosine phosphorylation P38MAPK antibody and anti-tyrosine phosphorylation ERK1/2 antibody (New England Biolabs, Inc. U.S.), and phosphorylation reaction of these molecules was determined by Western blotting.
In any groups, total amount of ERK1/2 (total sum of phosphorylated and non-phosphorylated p38MARK) was equal [refer to FIG. 19(B)].

[5] = tested on: p38MAPK; assay: Tyrosine phosphorylation (activation) of p38MAPK in HIV-1 infected M-MΦ by Western blotting; assay type: cell-based, human; settings: 30 μM, day 2 of culture, HIV-1BAL infected M-MΦ, compared with DMSO (FIG. 19(A))
Description: as §9
Thirty μM of EM, EM201, EM202, EM703 or CAM were added to M-MΦ infected with HIV-1BAL strain, tyrosine phosphorylation of p38MAPK was detected on day 2 of the culture by Western blotting. […] In any groups, total amount of p38MAPK (total sum of phosphorylated and non-phosphorylated p38MARK) was equal.

[6] = tested on: tyrosine kinase Hck protein; assay: Expression of tyrosine kinase Hck protein in M-MΦ by Western blotting; assay type: cell-based, human; settings: 30 μM, day 2 after HIV-1BAL infection, compared with DMSO control (FIG. 18)
Source text: as §1, §2
Consequently, M-MΦ was subjected to contact infection with HIV-1BAL strain for 2 hours, added 30 μM of EM, EM201, EM202, EM703 or CAM, incubated and expression of tyrosine kinase Hck protein was observed on day 2 after the infection by Western blotting.

[7] = tested on: HIV-1BAL strain infected M-MΦ; assay: Cytopathy (MGC formation) of HIV-1 infected M-MΦ; assay type: cell-based, human; settings: 30 μM, HIV-1BAL (FIG. 17)
Description: Formation of cell cluster and cell fusion was observed from the 2nd day of the incubation only in virus producing M-MΦ and formation of multinucleatic giant cells were recognized from the culture day 4–7 [refer to FIG. 2(A)]. On the other hand, in GM-MΦ without generation of virus, nomorphological changes were observed [refer to FIG. 2(B)].
M-MΦ was subjected to contact infection with HIV-1BAL strain for 2 hours, added 30 μM of EM, EM201, EM202, EM703 or CAM, incubated and observed the cell morphology.

Row | Compound | changes in expression of C/EBPβ in GM-MΦ [1] | HIV-1 growth promotion (p24 in culture supernatant) in oligonucleotide pretreated GM-MΦ ([2]; HIV-1 infection after pretreatment (FIG. 12)) | proliferation of virus in M-MΦ at 3 μM [3] | suppression of viral generation (p24 in culture supernatant) in M-MΦ [3] | viral proliferation at 300 μM in M-MΦ [3] | concentration dependence of suppressive action on HIV-1BAL in M-MΦ [3] | tyrosine phosphorylation of ERK1/2 [4] | tyrosine phosphorylation of p38MAPK [5] | expression of tyrosine kinase Hck protein in HIV-1 infected M-MΦ [6] | cytopathic effect (MGC formation) in HIV-1 infected M-MΦ [7] | viral generation in GM-MΦ [2]
1 | C/EBPβ-S: Phosphorothioate-modified sense oligonucleotide probe of C/EBPβ, 5′-CCGCGTTCATOCAACOCCTG-3′ (SEQ ID NO: 9) (sense CCGCGTTCATGCAACGCCTG; all phosphorothioate, sugars by position and methylation of C not given here) [reference compound] | not recognized | not recognized |  |  |  |  |  |  |  |  | 
2 | CCC(O)C(C)(O)C1OC(=O)C(C)C(OC2CC(C)(OC)C(O)C(C)O2)C(C)C(OC2OC(C)CC(NC)C2O)C2(C)CC(C)=C(O2)C1C (centres unmarked) [EM703, de(3′-N-methyl)-8,9-anhydro-pseudoerythromycin A 6,9-hemiketal] |  |  | inhibited almost completely the proliferation of virus | almost no p24 was detected | viral proliferation at 300 μM was observed | concentration dependent manner | promotion of tyrosine phosphorylation of ERK1/2 was recognized | significantly decreased | strongly suppressed | no cytopathic effect such as MCG formation was observed | almost no viral generation was recognized
3 | 11-(1′-hydroxypropyl)-3-[2,6-dideoxy-3-C-methyl-α-L-ribo-hexopyranosyl]oxy]-5-[(3,4,6-trideoxy-3-(dimethylamino)-β-D-xylo-hexopyranosyl)oxy]-2,4,6,8,11,14-hexamethyl-10,13,15-tri-oxatricyclo[9.2.1.1.^9.6]-pentadecane-1-one [EM201] |  |  | inhibited almost completely the proliferation of virus | almost no p24 was detected | viral proliferation at 300 μM was observed | concentration dependent manner | promotion of tyrosine phosphorylation of ERK1/2 was recognized | significantly decreased | strongly suppressed | no cytopathic effect such as MCG formation was observed | almost no viral generation was recognized
